{"source": "patent EP2818477B1", "about": "“L-LYSYL-L-GLUTAMYL-L-TRYPTOPHAN FOR CORRECTING METABOLIC SYNDROME” (Obshestvo S Organichennoj Otvetstvennostju \"CytoNIR\", priority 2012, dated 2016)", "key": {"[1]": {"assay": "Hyperlipidaemia induced by polyoxyethylene sorbitan monooleate (polysorbate-80) in rats, serum lipids", "format": "in vivo, Ratten", "conditions": "blood serum 24 h after polysorbate-80 300 mg/kg i.p.", "protocol": "Die Versuche wurden an 51 Outbred-Ratten-Männchen der Linie Sprague-Dawley mit Körpergewicht von 220 - 240 g durchgeführt.\nDie untersuchten Peptide wurden täglich in einer Tagesdosis von 20 und 200 µg/kg in den Magen im Laufe von 5 Tagen bis Hyperlipidämie-Ansatz verabreicht. Als Vergleichspräparat wurde ein Präparat gegen Hyperlipidämie aus der Gruppe von Fibric-Säure-Derivaten oder Fibraten - Bezafibrat (2-(b-parachlorobenzoyl-aminoethyl)phenoxy-2-methylpropinsäure) in der Dosis 50,0 mg/kg verwendet.\nDie Hyperlipidämie wurde bei Ratten mittels intraperitonealer Einführung von Polyoxyethylen-sorbitan-monooleat (Polysorbat-80, Mischung von Polyäthylen-glykol-Esteren von Anhydrosorbit Monooleat) in einer Dosis von 300 mg/kg verabreicht. 24 Stunden später wurden die Ratten eingeschläfert. Danach wurden Triglyzeridspiegel, Gesamtcholesterin und Lipoproteid-Cholesterin mit hoher Dichte (HDL) im Blutserum der Tiere gemessen.\nInfolge der Untersuchung der spezifischen pharmakologischen Aktivität wurde Folgendes festgestellt. Im Hintergrund der durch Polyoxyethylen-sorbitan-monooleat verursachten Hyperlipidämie üben Peptide eine hypolipidämische Wirkung aus. Das zeigt sich durch Senkung des Triglyzeridspiegels, des Gesamtcholesterinspiegels sowie durch Steigerung des HDL-Cholesterins im Blut (Tabelle 1) an. Tabelle 1"}, "[2]": {"assay": "Alimentary atherogenic dyslipoproteinaemia (hypercholesterolaemic diet, 24 days) in rats, serum lipids", "format": "in vivo, Ratten", "conditions": "100 µg/kg i.p. daily", "source_text": "Der Versuch wurde an 40 weißen Ratten-Männchen der Wistar-Linie mit einem Körpergewicht von 230 - 250 g durchgeführt. Die Tiere wurden in 4 Gruppen aufgeteilt. Gruppe 1: Referenzgruppe (Intakt), Gruppen 2 bis 4: Versuchsgruppen.\nDie Versuchstiere wurden auf hypercholesterinämische (HCÄ) Diät gesetzt, um eine alimentäre atherogene Dyslipoproteinämie (DLP) zu modellieren. Die HCÄ- Diät umfasste mind. 7,5 % Cholesterin (CS), 45 % Fette und einen Überschuss an Vitamin D2 (500 000 IE). Gleichzeitig mit der Entwicklung von DLP erhielt die 3. Gruppe von Tieren Lys-Glu-Trp in einer Dosis von 100 µg/kg intraperitoneal täglich. Die 4. Gruppe von Tieren erhielt Lipanthyl 25 mg/kg intraperitoneal Lipanthyl 200M der Fa. Lab.Fournier S.A. (Frankreich) oder Fenofibrate, die zur Behandlung von Hyperlipoproteinämie verwendet werden, die sich mit keiner Diät mehr behandeln lässt. Der Versuch dauerte 24 Tage. […] Sie waren wohlgenährt und hatten glattes glänzendes Fell. Die Tiere aus der 2. Gruppe hatten zerzaustes Fell und zeigten Übererregbarkeit, was durch einen Überschuss an Vitamin D2 erklärt werden kann.\nNach dem Versuchsende wurde eine Dekapitation der Tiere vorgenommen. Danach wurden der Gesamt-Cholesterinspiegel (CS), Triglyzeridspiegel (TG), Cholesteringehalt der Lipoproteine hoher Dichte (CS HDL) im Blutserum der Tiere beurteilt und die Cholesterin-Konzentration der Lipoproteine niedriger Dichte (CS LDL) sowie der Cholesterin-HDL Quotient (LDL/HDL-Verhältnis) berechnet. Die genannten Kennziffern sind der Tabelle 2 zu entnehmen. Tabelle 2\nBei der Beurteilung wurden der Zustand und das Gewicht von Leber, Milz und Nebennieren berücksichtigt."}, "[3]": {"assay": "Alloxan diabetes in rats, blood glucose and response to insulin", "format": "in vivo, Ratten", "protocol": "Bekanntlich ist Alloxan-Diabetes durch Schädigung der ß-Zellen von Pankreas gekennzeichnet und wird von ausgeprägter Hyperglykämie infolge eines Insulinmangels und einer Aktivierung von Glukoneogenese begleitet.\nDer Versuch wurde an 18 weißen Outbred-Ratten-Männchen mit einem durchschnittlichen Körpergewicht von 349 ± 19 g durchgeführt. Nach der Ermittlung von Glukosekonzentration im Blut wurden alle Tiere in 2 Gruppen aufgeteilt. Danach erhielten alle Tiere einmalig intravenös je 1 ml Alloxanlösung (\"Spofa\") in einer Dosis von 35 mg/kg. 15 Tage danach wurde den Tieren aus der Referenzgruppe je 0,3 ml der 0,9 %igen NaCl-Lösung einmal täglich intraperitoneal verabreicht. Die Ratten aus der Hauptgruppe wurden mit Tripeptid Lys-Glu-Trp-NH2 in einer Dosis von 3 µg (in 0,3 ml der 0,9 %igen NaCl-Lösung) pro Ratte innerhalb von 11 Tagen behandelt. Eine separate Gruppe bestand aus 7 gesunden Ratten mit einem ähnlichen Körpergewicht.\nDanach wurde allen Tieren Insulin (0,3 ME) intravenös verabreicht und die Glukosekonzentration im Blut gemessen."}, "[4]": {"format": "in vivo", "conditions": "500 µg oral twice daily for 30 days", "source_text": "Die Untersuchung bezog sich auf Patienten mit einer verifizierten Diagnose eines metabolischen Syndroms. Die Diagnose wurde bei Erfüllung folgender Kriterien gestellt: arterielle Hypertension, gestörte Glukosetoleranz, Fettsucht, Dyslipidämie. Es wurden insgesamt 85 Patienten mit metabolischem Syndrom (50 Frauen, 35 Männer) untersucht. Das durchschnittliche Alter betrug bei den Männern 54,6 ± 12 Jahre, bei den Frauen 55,6 ± 13,0 Jahre.\nKriterien für die Einbeziehung der Patienten in die Forschung: • 1. Alter: Älter als 45 Jahre für Männer und Frauen. • 2. Vorhandensein von klinischen Merkmalen eines metabolischen Syndroms. • 3. Vorhandensein von verifizierter Pathologie des Magen-Darm-Kanals (Verstopfungen, Reizdarmsyndrom, Cholezystitis, Pankreatitis, Fettleber). • 4. Zustimmung des Patienten.\nDie Kriterien für den Ausschluss der Kranken aus der Untersuchung waren das Vorhandensein von familiärer Dyslipidämie, akuter Pathologie des Magen-Darm-Kanals, Merkmalen der Helmintheninvasion und onkologischer und systematischer Pathologie.\nDie Kombination der angewandten pathogenetischen Therapie unter Einsatz solcher Mittel wie ACE-Hemmer, Ca2^+-Kanal-Blocker, harntreibende Mittel, β-Blocker und deren Dosierung wurde aufgrund klinischer Indikationen festgelegt. Bei der Untersuchung wurden auch die mit Nitropräparaten sowie mit Statinen behandelten Kranken ausgeschlossen. Alle Kranken wurden einer hypocholesterinämisierenden Diät unterzogen, die eine Einnahme von Kleie einschließt.\nTripeptid Lys-Glu-Trp-NH2 wurde 47 Patienten oral in einer Dosis von 500 µg pro Gabe zweimal täglich im Laufe von 30 Tagen verabreicht. Die Unterbrechung zwischen den Behandlungen betrug 2 Monate.\nDie Kranken wurden im Laufe von 12 Monaten beobachtet. Die Untersuchung umfasste 3 Phasen: Ursprungsphase (zum Zeitpunkt der Diagnoseüberprüfung), 6 Monate und ein Jahr später.\nFolgende Parameter wurden bei allen Kranken analysiert: Geschlecht, Alter zum Zeitpunkt der Untersuchung, Krankheitsdauer, Dauer der arteriellen Hypertension, Fettsucht, Dyslipidämie. Die Untersuchung der Kranken umfasste eine Einschätzung der Risikofaktoren, wie z. B. Vererbung, Fettsucht, Zuckerkrankheit, koronare Herzkrankheit. Dabei wurde eine Sozialanamnese, d. h. Besonderheiten des Lebensstils, Ernährungsgewohnheiten, analysiert. Es wurden auch anthropometrische Messungen durchgeführt: Wuchs, Körpergewicht, Body-Maß- Index. Alle Kranken wurden einer planmäßigen Laboruntersuchung unterzogen und zwar: klinische Blutanalyse und Untersuchung von biochemischen Blutkennwerten. Es wurden Hämoglobingehalt, Erythrozytenmenge, Leukozyten-gehalt, Lymphozytengehalt ermittelt. Unter den biochemischen Serumkennwerten wurden Gesamteiweißgehalt, Albumine, Triglyzeridspiegel, Cholesterinspiegel, LDL, HDL, LDL/HDL-Verhältnis ermittelt. Die durchgeführten Instrumentenunter-suchungen umfassten Zuckerbelastungstest, Abdomen-Sonographie, Stuhluntersuchungen, Schilddrüsenfunktionsprüfung (Hormonstatus)."}, "[5]": {"conditions": "20 µg/kg daily into the stomach for 5 days"}, "[6]": {"conditions": "200 µg/kg daily into the stomach for 5 days"}, "[7]": {"conditions": "3 µg per rat i.p. for 11 days, 30 min after insulin 0,3 ME i.v."}}, "note": "Read-outs that look alike come from different tables or passages of the source. Marks after values point to notes of the source that are not given here. Where a SMILES comes first, the peptide text is derived from it.", "data": [{"smiles": "CC(C)(Oc1ccc(CCNC(=O)c2ccc(Cl)cc2)cc1)C(=O)O", "note": "[Bezafibrat, 2-(b-parachlorobenzoyl-aminoethyl)phenoxy-2-methylpropinsäure]", "values": [{"measurement": "Gesamtcholesterin", "setting": "[1]; 50,0 mg/kg (comparator)", "result": "1,34±0,03 mMol/l"}, {"measurement": "HDL- Cholesterin", "setting": "[1]; 50,0 mg/kg (comparator)", "result": "0,98±0,05 mMol/l"}, {"measurement": "Triglyzeridspiegel", "setting": "[1]; 50,0 mg/kg (comparator)", "result": "0,55±0,06 mMol/l"}]}, {"smiles": "NCCCC[C@H](N)C(=O)N[C@@H](CCC(=O)O)C(=O)N[C@@H](Cc1c[nH]c2ccccc12)C(=O)O", "note": "[Lys-Glu-Trp, L-Lysyl -L-Glutamyl-L-Tryptophan] (H-Lys-Glu-Trp-OH)", "values": [{"measurement": "HDL- Cholesterin", "setting": "[1]; [5]", "result": "0,97±0,04 mMol/l"}, {"measurement": "Triglyzeridspiegel", "setting": "[1]; [5]", "result": "0,58±0,05 mMol/l"}, {"measurement": "Gesamtcholesterin", "setting": "[1]; [6]", "result": "2,10±0,17 mMol/l"}, {"measurement": "HDL- Cholesterin", "setting": "[1]; [6]", "result": "0,60±0,02 mMol/l"}, {"measurement": "Triglyzeridspiegel", "setting": "[1]; [6]", "result": "0,67±0,05 mMol/l"}, {"measurement": "Wirkung auf das relative Gewicht von Leber, Milz und Nebennieren", "setting": "[2]; HCÄ diet 24 days", "result": "keine ungünstige Wirkung"}, {"measurement": "Triglyzeridspiegel", "setting": "[2]; HCÄ diet 24 days, blood serum", "result": "0,96±0,16 mMol/l"}, {"measurement": "Aussehen der Tiere", "setting": "[2]; during the 24-day experiment", "result": "normgerechtes Aussehen"}, {"measurement": "CS LDL", "setting": "[2]; calculated, HCÄ diet 24 days", "result": "0,71±0,24 mMol/l"}, {"measurement": "LDL/HDL-Verhältnis", "setting": "[2]; calculated, HCÄ diet 24 days", "result": "2,21±0,58* *"}, {"measurement": "CS", "setting": "[2]; total cholesterol, HCÄ diet 24 days, blood serum", "result": "1,70±0,27* * mMol/l"}]}, {"smiles": "NCCCC[C@H](N)C(=O)N[C@@H](CCC(=O)O)C(=O)N[C@@H](Cc1c[nH]c2ccccc12)C(N)=O", "note": "[Lys-Glu-Trp-NH2] (H-Lys-Glu-Trp-NH2)", "values": [{"measurement": "Gesamtcholesterin", "setting": "[1]; [5]", "result": "1,69±0,15 mMol/l"}, {"measurement": "HDL- Cholesterin", "setting": "[1]; [5]", "result": "1,05±0,02 mMol/l"}, {"measurement": "Triglyzeridspiegel", "setting": "[1]; [5]", "result": "0,76±0,14 mMol/l"}, {"measurement": "Gesamtcholesterin", "setting": "[1]; [6]", "result": "1,22±0,15 mMol/l"}, {"measurement": "HDL- Cholesterin", "setting": "[1]; [6]", "result": "1,09±0,02 mMol/l"}, {"measurement": "Triglyzeridspiegel", "setting": "[1]; [6]", "result": "0,88±0,12 mMol/l"}, {"measurement": "Nebenwirkungen, Komplikationen, Arzneiabhängigkeit", "setting": "[3]; 3 µg per rat i.p. for 11 days", "result": "keine Nebenwirkungen, Komplikationen und keine Arzneiabhängigkeit"}, {"measurement": "Glukosekonzentration im Blut (mg %) Ausgangsspiegel", "setting": "[3]; 3 µg per rat i.p. for 11 days, starting 15 days after alloxan 35 mg/kg i.v., before insulin", "result": "221,5±11,2 mg %"}, {"measurement": "Glukosekonzentration im Blut (mg %) 30 Minuten nach Insulineinführung", "setting": "[3]; [7]", "result": "123,6±8,3 mg %"}, {"measurement": "Senkung von Glukosespiegel im Vergleich zum Ausgangsspiegel (%)", "setting": "[3]; [7]", "result": "44,2%"}, {"measurement": "Senkung des Glukosespiegels im Blut", "setting": "[3]; day 28 of the study, on average, 3 µg per rat i.p. for 11 days", "result": "34,8%"}, {"measurement": "Letalität", "setting": "[3]; main group, 3 µg per rat i.p. for 11 days", "result": "Senkung der Letalität"}, {"measurement": "Glukosespiegelsenkung nach der Insulineinführung gegenüber der Vergleichsgruppe", "setting": "[3]; versus alloxan diabetes + NaCl group", "result": "fast zweimal größere Glukosespiegelsenkung"}, {"measurement": "Cholesterin-Konzentration", "setting": "[4]; 2 months between courses, 12 months observation, with basic therapy, Fig. 1", "result": "zur Cholesterin-Konzentrationssenkung beitrug"}, {"measurement": "Konzentration der Lipoproteine mit hoher Dichte", "setting": "[4]; in complex therapy", "result": "Konzentrationssteigerung der Lipoproteine mit hoher Dichte"}, {"measurement": "drucksenkender Effekt", "setting": "[4]; in complex therapy", "result": "schnelleren und stabileren drucksenkenden Effekt"}, {"measurement": "LDL/HDL-Verhältnis", "setting": "[4]; with basic therapy, Fig. 3", "result": "ausgeprägte Verminderung des LDL/HDL-Verhältnisses"}, {"measurement": "Konzentration der Triglyzeride", "setting": "[4]; 3rd examination after one year, Fig. 2", "result": "maximale Konzentrationssenkung der Triglyzeride"}]}]}
